# Calls of active or inactive are those of the source. No cut-off for these calls is given here.
# What was measured:
# Rattus norvegicus [1] = assay: Estrogenic activity in albino rat assessed as vaginal openings at 10 ug, po administered twice daily measured after 4 days relative to control; format: functional, organism-based
# Rattus norvegicus [2] = assay: Estrogenic activity in albino rat assessed as uterus weight at 50 ug, po administered twice daily measured after 4 days; format: functional
# Rattus norvegicus [3] = assay: Estrogenic activity in albino rat assessed as uterus weight at 20 ug, po administered twice daily measured after 4 days; format: functional
# Rattus norvegicus [4] = assay: Estrogenic activity in albino rat assessed as uterus weight at 10 ug, po administered twice daily measured after 4 days; format: functional
# Rattus norvegicus [5] = assay: Estrogenic activity in albino rat assessed as vaginal openings at 50 ug, po administered twice daily measured after 4 days relative to control; format: functional
structure (smiles),measurement,setting,value
COc1ccc(-c2coc3cc(O[C@@H]4O[C@H](CO)[C@@H](O)[C@H](O)[C@H]4OC(=O)/C=C/c4ccc(O)cc4)ccc3c2=O)cc1CC=C(C)C,Activity,Rattus norvegicus [1],inactive
same,Activity,Rattus norvegicus [2],33.21%
same,Activity,Rattus norvegicus [3],27.79%
same,Activity,Rattus norvegicus [4],18%
same,Activity,Rattus norvegicus [5],100%
